Laboratory results from patent US20050112573A1, “Method of detecting toxic substance” (priority 2001, published 2005).

Test system: yeast genes (level of expressed mRNA)
Assay: DNA chip analysis of expressed mRNA of yeast genes after 2 h culture with a toxic chemical substance
Assay type: cell-based, Saccharomyces cerevisiae S288C
Conditions: for The level of expressed mRNA in the presence of chemical substance/ (ratio to absence of chemical substance): stress protein genes, DNA chip
Procedure: Yeast (Saccharomyces cerevtisiae S288C (α SUC2mal mel gap2 CUP1)) were cultured at 25° C. on YPD medium (yeast extract 1%, polypepton 2%, glucose 2%). One of toxic chemical substances was added to the cell at logarithmic growth phase, and the cell was further cultured for two hours. Cell was cultured without any chemical substance in the same condition, and was used as control. Concentrations of the chemical substances were defined to inhibit the growth of the yeast but not lead to death.
After the completion of cultivation, the culture was centrifuged to collect the cells. To the cells, sodium acetate buffer (50 mM sodium acetate, 10 mM EDTA, 1% SDS) was added, and the mixture was shaken at 65° C. for five minutes, followed by returning to room temperature, and obtaining the supernatant, which procedure was repeated two times. To the supernatant, ½ amount of a solution of phenol/chloroform was added, and the mixture was centrifuged to give a supernatant, which was added with an equal amount of chloroform, and the mixture was centrifuged to give a supernatant. To the supernatant, an equal amount of isopropanol containing 0.3 M sodium acetate was added, and the mixture was allowed to stand at room temperature for 30 minutes, after which the mixture was centrifuged to give a sediment of the whole RNAs. Seventy % ethanol was added to the sediment, and the mixture was again centrifuged to give a sediment, which was then dried and dissolved in water. mRNA was isolated from the whole RNAs as followings. In view of the fact that a poly A chain is attached to the 3′ terminus of mRNA, a polynucleotide having a poly T structure which was immobilized on the surface of latex beads was used to trap the mRNA, and then the mRNA was washed and eluted with spine column (Oligotex-dT30<Super>mRNA Purification Kit, Takara). Reverse transcription of the mRNA was conducted with a reverse transcriptase (Super Script II Reverse Transcriptase; catalogue No. 18064-014, GibcoBRL) using fluorescence-labeled nucleotides to give cDNAs that were introduced with Cy3-dUTP or Cy5-dUTP during the reverse transcription.
The labeled cDNAs were dissolved in TE buffer (10 mM Tris-HCl/1 mM EDTA, pH8.0), and the solution was dropped on the DNA chip containing the whole genes of yeast (DNA Chip Research Inc. Japan) so that the cDNAs were hybridized on the DNA chip at 65° C. for over 12 hours. The fluoresces intensity of the DNA chip was read with a scanner, and the ratio relative to the fluorescence intensity resulting from the absence of chemical substance was estimated as the following, which is shown in Tables 1 to 9: [formula]
In the Tables, “Intensity” indicated in the rightmost column is a value of the level of expressed mRNA of each gene in control cells as divided by the average level of the expressions of the whole genes.

S=C([S-])NCCNC(=S)[S-].[Zn+2] [(11), zinc N,N′-ethylenebis(dithiocarbamate)]
The level of expressed mRNA in the presence of chemical substance/The level of expressed mRNA in the absence of chemical substance (yeast gene YIL123W): 1.2 | The level of expressed mRNA in the presence of chemical substance/The level of expressed mRNA in the absence of chemical substance (yeast gene YIL140W): 0.9 | The level of expressed mRNA in the presence of chemical substance/ (in its absence), gene YJL070C (yeast gene YJL070C, ratio of DNA chip fluorescence intensity to that without chemical substance): 1.3 | The level of expressed mRNA in the presence of chemical substance/The level of expressed mRNA in the absence of chemical substance (yeast gene YJL073W): 0.5 | The level of expressed mRNA in the presence of chemical substance/The level of expressed mRNA in the absence of chemical substance (yeast gene YJL089W): 0.6 | The level of expressed mRNA in the presence of chemical substance/ (ratio to absence), gene YJL096W (yeast gene YJL096W, mitochondria-located protein genes, 2 h culture with chemical): 1.2 | The level of expressed mRNA in the presence of chemical substance/The level of expressed mRNA in the absence of chemical substance (yeast gene YJL116C): 2.9 | The level of expressed mRNA in the presence of chemical substance/ (ratio to absence of chemical substance) (yeast gene YJL158C): 1.9 | The level of expressed mRNA in the presence of chemical substance/ (in its absence), gene YJL167W (yeast gene YJL167W, ratio of DNA chip fluorescence intensity to that without chemical substance): 1.2 | The level of expressed mRNA in the presence of chemical substance/ (ratio to absence), gene YJL180C (yeast gene YJL180C, mitochondria-located protein genes, 2 h culture with chemical): 1.4 | The level of expressed mRNA in the presence of chemical substance/ (in its absence), gene YJL216C (yeast gene YJL216C, ratio of DNA chip fluorescence intensity to that without chemical substance): 1.1 | The level of expressed mRNA in the presence of chemical substance/The level of expressed mRNA in the absence of chemical substance (yeast gene YJR004C): 0.7 | The level of expressed mRNA in the presence of chemical substance/The level of expressed mRNA in the absence of chemical substance (yeast gene YJR086W): 1.0 | The level of expressed mRNA in the presence of chemical substance/ (ratio to absence of chemical substance) (yeast gene YJR090C): 0.4 | The level of expressed mRNA in the presence of chemical substance/The level of expressed mRNA in the absence of chemical substance (yeast gene YKL008C): 1.5 | The level of expressed mRNA in the presence of chemical substance/The level of expressed mRNA in the absence of chemical substance (yeast gene YKL013C): 1.1 | The level of expressed mRNA in the presence of chemical substance/The level of expressed mRNA in the absence of chemical substance (yeast gene YKL039W): 1.0 | The level of expressed mRNA in the presence of chemical substance/The level of expressed mRNA in the absence of chemical substance (yeast gene YKL041W): 1.2 | The level of expressed mRNA in the presence of chemical substance/The level of expressed mRNA in the absence of chemical substance (yeast gene YKL096W): 3.5 | The level of expressed mRNA in the presence of chemical substance/The level of expressed mRNA in the absence of chemical substance (yeast gene YKL139W): 1.4 | The level of expressed mRNA in the presence of chemical substance/ (ratio to absence of chemical substance) (yeast gene YKL164C): 1.0 | The level of expressed mRNA in the presence of chemical substance/The level of expressed mRNA in the absence of chemical substance (yeast gene YKL165C): 0.3 | The level of expressed mRNA in the presence of chemical substance/The level of expressed mRNA in the absence of chemical substance (yeast gene YKL193C): 1.7 | The level of expressed mRNA in the presence of chemical substance/ (in its absence), gene YKR009C (yeast gene YKR009C, ratio of DNA chip fluorescence intensity to that without chemical substance): 1.2 | The level of expressed mRNA in the presence of chemical substance/ (in its absence), gene YKR034W (yeast gene YKR034W, ratio of DNA chip fluorescence intensity to that without chemical substance): 0.0 | The level of expressed mRNA in the presence of chemical substance/ (ratio to absence of chemical substance) (yeast gene YKR053C): 0.5 | The level of expressed mRNA in the presence of chemical substance/ in its absence, gene YKR058W (yeast gene YKR058W, energy system protein genes, 2 h culture with the chemical, ratio to control without chemical): 1.5 | The level of expressed mRNA in the presence of chemical substance/ (in its absence), gene YLR006C (yeast gene YLR006C, ratio of DNA chip fluorescence intensity to that without chemical substance): 1.5 | The level of expressed mRNA in the presence of chemical substance/ (ratio to absence of chemical substance) (yeast gene YLR006C): 1.5 | The level of expressed mRNA in the presence of chemical substance/The level of expressed mRNA in the absence of chemical substance (yeast gene YLR120C): 1.2 | The level of expressed mRNA in the presence of chemical substance/The level of expressed mRNA in the absence of chemical substance (yeast gene YLR136C): 1.2 | The level of expressed mRNA in the presence of chemical substance/The level of expressed mRNA in the absence of chemical substance (yeast gene YLR178C): 3.7 | The level of expressed mRNA in the presence of chemical substance/The level of expressed mRNA in the absence of chemical substance (yeast gene YLR250W): 1.4 | The level of expressed mRNA in the presence of chemical substance/ in its absence, gene YLR295C (yeast gene YLR295C, energy system protein genes, 2 h culture with the chemical, ratio to control without chemical): 1.3 | The level of expressed mRNA in the presence of chemical substance/ (ratio to absence), gene YLR295C (yeast gene YLR295C, mitochondria-located protein genes, 2 h culture with chemical): 1.3 | The level of expressed mRNA in the presence of chemical substance/The level of expressed mRNA in the absence of chemical substance (yeast gene YLR327C): 5.0 | The level of expressed mRNA in the presence of chemical substance/ (in its absence), gene YLR351C (yeast gene YLR351C, ratio of DNA chip fluorescence intensity to that without chemical substance): 1.1 | The level of expressed mRNA in the presence of chemical substance/The level of expressed mRNA in the absence of chemical substance (yeast gene YLR356W): 3.1 | The level of expressed mRNA in the presence of chemical substance/The level of expressed mRNA in the absence of chemical substance (yeast gene YLR362W): 1.5 | The level of expressed mRNA in the presence of chemical substance/ (in its absence), gene YLR375W (yeast gene YLR375W, ratio of DNA chip fluorescence intensity to that without chemical substance): 1.6 | The level of expressed mRNA in the presence of chemical substance/The level of expressed mRNA in the absence of chemical substance (yeast gene YLR391W): 1.4 | The level of expressed mRNA in the presence of chemical substance/The level of expressed mRNA in the absence of chemical substance (yeast gene YLR429W): 0.9 | The level of expressed mRNA in the presence of chemical substance/ in its absence, gene YML129C (yeast gene YML129C, energy system protein genes, 2 h culture with the chemical, ratio to control without chemical): 1.2 | The level of expressed mRNA in the presence of chemical substance/ (ratio to absence), gene YML129C (yeast gene YML129C, mitochondria-located protein genes, 2 h culture with chemical): 1.2 | The level of expressed mRNA in the presence of chemical substance/The level of expressed mRNA in the absence of chemical substance (yeast gene YMR004W): 2.5 | The level of expressed mRNA in the presence of chemical substance/ (ratio to absence), gene YMR023C (yeast gene YMR023C, mitochondria-located protein genes, 2 h culture with chemical): 0.8 | The level of expressed mRNA in the presence of chemical substance/The level of expressed mRNA in the absence of chemical substance (yeast gene YMR094W): 1.0 | The level of expressed mRNA in the presence of chemical substance/The level of expressed mRNA in the absence of chemical substance (yeast gene YMR104C): 1.1 | The level of expressed mRNA in the presence of chemical substance/ (ratio to absence of chemical substance) (yeast gene YMR186W): 1.1 | The level of expressed mRNA in the presence of chemical substance/The level of expressed mRNA in the absence of chemical substance (yeast gene YMR219W): 1.5 | The level of expressed mRNA in the presence of chemical substance/The level of expressed mRNA in the absence of chemical substance (yeast gene YMR226C): 1.4 | The level of expressed mRNA in the presence of chemical substance/ in its absence, gene YMR267W (yeast gene YMR267W, energy system protein genes, 2 h culture with the chemical, ratio to control without chemical): 1.0 | The level of expressed mRNA in the presence of chemical substance/ (ratio to absence), gene YMR267W (yeast gene YMR267W, mitochondria-located protein genes, 2 h culture with chemical): 1.0 | The level of expressed mRNA in the presence of chemical substance/ in its absence, gene YMR267W (yeast gene YMR267W, ratio of DNA chip fluorescence intensity to that without chemical substance): 1.0 | The level of expressed mRNA in the presence of chemical substance/The level of expressed mRNA in the absence of chemical substance (yeast gene YMR275C): 1.1 | The level of expressed mRNA in the presence of chemical substance/The level of expressed mRNA in the absence of chemical substance (yeast gene YMR276W): 1.9 | The level of expressed mRNA in the presence of chemical substance/ (in its absence), gene YMR278W (yeast gene YMR278W, ratio of DNA chip fluorescence intensity to that without chemical substance): 1.1
